# In ChEMBL document CHEMBL3507680, “University of Dundee, Gates Library screen for HepG2 cell viability”:
# Test: Human HepG2 cell viability assay in 384 well format
# Type: toxicity, cell-based
# Set-up: dose 125 nL, time 70.5 hour; cytotoxicity at 70.5 h: concentration not given beside the values
# Conditions: HepG2 cells, read-out: Inhibition
row,SMILES,cytotoxicity at 70.5 h
1,CCOC(=O)CSc1nnc([C@@H](N)C(C)CC)o1 (some centres undefined),-9.94%
2,CCC(=O)N1CCC2(C=C(C(=O)N3CCCC3)c3ccccc32)CC1,8.56%
3,COc1ccc(NC(=O)NCC(C)N2CCc3ccccc32)cc1 (centres undefined),-11.4%
4,CC1CN(C(=O)Nc2ccc(Cl)c(C(=O)NC3CC3)c2)CC(C)(C)O1 (centres undefined),-7.92%
5,CC(O)CNC(=O)NCc1ccc(N2CCNC(=O)C2)cc1 (centres undefined),2.26%
6,CC(=O)N1CCN(C(=O)CCOc2ccc(C(C)C)cc2)CC1,-3.31%
7,CC(C)CN1CCc2[nH]cnc2C12CCN(C(=O)c1cnn(C)c1)CC2,-7.51%
8,CCN(C)S(=O)(=O)NCC1CCN(Cc2ccccc2C)CC1,-9.65%
9,CCC(C)N(Cc1sccc1C)C(=O)c1ccc(S(C)(=O)=O)cc1 (centres undefined),-4.15%
10,O=C(Cc1cccs1)N1C[C@@H]2COC[C@]2(COCc2cccnc2)C1,-5.53%
11,Cn1cccc1C(=O)N1CCC2(CC1)CN(c1ccccn1)CCO2,-5.53%
12,Cc1nn(C)c(C)c1C(=O)N1CCN(C(=O)CCC2CCCCC2)CC1,-13.4%
13,Fc1cnc(N2CCOC3(CCN(Cc4ccsc4)CC3)C2)nc1,8.85%
14,CSc1ccc(CNC2(c3ccc(F)cc3)CCOCC2)cc1,-3.89%
15,CC(C)(O)CCc1cccc(C(=O)NCC2COCCO2)c1 (centres undefined),-1.78%
16,CC1CC2(CCN(C(=O)c3c[nH]cn3)CC2)c2ccccc21 (centres undefined),-8.21%
17,COCc1noc(CCNC(=O)c2cc(C)c(C)[nH]c2=O)n1,-7.79%
18,Cn1cc(CN2CCC(CCC(=O)NC3CC3)CC2)cn1,0.934%
19,CC1c2ncc(COCC3CC3)n2CCN1C (centres undefined),-4.63%
20,Cc1cc(C2CCCN(C(=O)COc3ccc(F)cc3)C2)n[nH]1 (centres undefined),-8.58%
21,COc1ccc2nc3n(c2c1)[C@@H](CNC(=O)c1cncnc1)COC3,-2.36%
22,CN(CC(=O)Nc1cnn(-c2ccccc2S(C)(=O)=O)c1)C1CC1,-3.94%

row,SMILES,cytotoxicity at 70.5 h
1,O=C(NCC(F)F)N1CCC(n2ccc(C(F)(F)F)n2)CC1,2.24%
2,O=C(CS(=O)(=O)Cc1cc(Cl)c2c(c1)OCO2)N1CCCC1,-0.922%
3,Cc1cnc(C)c(N2CCC(c3nnc(CN(C)C)n3C3CC3)CC2)n1,11.2%
4,Cc1cc(C(=O)NCCc2nc3c(s2)CCCC3)n(C)n1,-3.4%
5,CC(=O)N1CCC(Cc2cnc(-n3ccnc3)cn2)CC1,-6.47%
6,CC(c1nnc(-c2ccccc2)o1)N1CCc2cncnc2C1 (centres undefined),-4.24%
7,COc1ccc(SCC2CNc3nc4ccccc4c(=O)n32)cc1 (centres undefined),1.56%
8,CC(C)c1noc(CS(=O)(=O)Cc2nc(C(C)C)no2)n1,-7.1%
9,COCC1c2nnn(CC3CC3)c2CCN1C(=O)c1cnccn1 (centres undefined),-13%
10,CCN(CC)C(=O)C1CCCN(CC(=O)Nc2c(C)nn(CC)c2C)C1 (centres undefined),22.3%
11,O=C(NCc1ccccn1)[C@]12COC[C@H]1CN(Cc1ccsc1)C2,-0.962%
12,Cc1nnc(CN2CCN(CC(O)c3ccccc3)CC2)o1 (centres undefined),-1.4%
13,CC(C)(C)CN1CCOC[C@H]1c1nc(-c2cccc(F)c2)c[nH]1,-6.97%
14,Cn1nccc1CNC(=O)Nc1cc(C(F)(F)F)c[nH]c1=O,-7.39%
15,COC(=O)CN(CC1CCOC1)C1CC1 (centres undefined),-3.42%
16,Cc1cccc(-n2cnc(Cl)c2CO)c1,-0.946%
17,CC(C)Cc1nc(OCC(=O)O)c(C#N)c2c1CCC2,3.53%
18,O=C1CC2(CCN(S(=O)(=O)C3CC3)C2)CN1c1cncnc1 (centres undefined),4.54%
19,Cc1cc(C)c(CNC(=O)N2CCCC2C(N)=O)c(=O)[nH]1 (centres undefined),-4.33%
20,CCN1CCCC(CNC(=O)C2(c3cccc(Cl)c3)CC2)C1 (centres undefined),-0.608%
21,CC(C)(C)CC(=O)N1CC[C@H]2CC(=O)N(CCc3c[nH]cn3)CC[C@H]2C1,-4.11%
22,Cn1cc(CN2CC[C@H]3O[C@@H](C(=O)NC4CC4)CC[C@H]32)cn1,-1.4%
